Experiments:
[1] = system: liver, white adipose tissue (WAT), brown adipose tissue (BAT) and kidney; test: Histological examination of high-fat diet mice; format: in vivo, mice (C57BL/6); details: 10 weeks of high-fat diet feeding
Experimental: (§1) At 10 weeks of high-fat diet feeding, the mice were sacrificed by cervical dislocation to obtain serum. For histological examination, the liver, white adipose tissue (WAT), brown adipose tissue (BAT) and kidney were fixed with formalin (50-00-0, Junsei, Japan), and the remaining organs were stored at −70° C. The blood sampled from the heart was coagulated to obtain serum which was then stored at −70° C.
For histological examination, the major organs and adipose were fixed in 4% neutral buffered formalin and embedded in paraffin blocks, and the paraffin blocks were sectioned at 5 μm and stained with hymatoxylin (MHS-16, Sigma-Aldrich, USA) and eosin (HT110116, Sigma-Aldrich). The prepared tissue samples were mounted in glycerin gel mounting media (SP15-100, Fisher Scientific, USA), covered with cover glass, and observed with a microscope (IX71, OLYMPUS, USA). The tissue was imaged with the camera equipped in the microscope.

[2] = Scanning electron microscope (SEM) analysis, particle size; format: physicochemical
From the text: For reference, an analysis instrument and analysis conditions are as follows. (1) Analysis instrument: HITACHI (S-2700), Japan (2) Electron gun: Tungsten filament type (3) Resolution: 4.0 nm (4) Accelerating voltage: 15.0 kV.

[3] = Body weight and body weight gain of high-fat diet mice; format: in vivo, mice (C57BL/6); details: sample in drinking water, metformin 250 mg/kg
Experimental: (§2) Using 8-week-old male mice (C57BL/6) (purchased from CoreTech), anti-diabetic candidate materials were evaluated using a GTT (Glucose Tolerance Test) that is a typical method for diagnosis of diabetes.
(§3) Mice were housed at a temperature of 22±2° C. and a relative humidity of 55-60% with 12-hr light/12-hr dark cycles. Five animals were allotted to each group, and mice from the same mother were grouped into one group, because male mice tend to fight together.
(§4) As feed, high-fat diet (60% of calories from fat; Research Diet Inc., New Brunswick, N.J.) and water were fed ad libitum for 10 weeks. Herein, the water fed contained the samples prepared in Examples 1-2 (3), 2-1, 2-4-1, 2-4-2 and 2-5. As a positive control, metformin (M-072, Sigma) (250 mg/kg) was used, and as a control, the samples prepared in Comparative Examples 1-1, 2-3-2, 2-5-1, 2-5-2 and 2-6 were used.
(§5) For reference, each of the samples prepared in Examples 2-4-1, 2-4-2 and 2-5 was set to the amount to be taken by an adult (60 kg) for 3 days, and the amount was converted into a mouse dose (12-fold/kg, see the US NIH guidance), thereby preparing animal feed. Namely, the amount to be taken by an adult (60 kg) for 3 days is 180-day dose/kg, which corresponds to 15-day dose/kg for mice. Thus, the amount corresponds to 750-day dose/mouse (20 g), because the average weight of mice is about 20 g. Thus, one mouse was allowed to take 1/750 of the prepared sample each day.
(§6) In addition, each of the samples prepared in Examples 1-2 (3) and 2-1 was set to the amount to be taken by an adult (60 kg) for 2 days, and the amount was converted into a mouse dose (12-fold/kg, see the US NIH guidance), thereby preparing animal feed. Namely, the amount to be taken by an adult (60 kg) for 2 days is 120-day dose/kg, which corresponds to 10-day dose/kg for mice. Thus, the amount corresponds to 500-day dose/mouse (20 g), because the average weight of mice is about 20 g. Thus, one mouse was allowed to take 1/500 of the prepared sample each day.
The diet intake and the body weight gain were measured weekly for 8 weeks. The body weight and the diet intake were measured immediately before first drug administration, and then measured at one-week intervals.
(§7) Meanwhile, experimental analysis results were expressed as mean±S.E.M., and the significance between test groups was statistically processed using Student T-TEST, and then the significance was verified at *P<0.05.

[4] = Glucose tolerance test (GTT) in high-fat diet mice; format: in vivo, mice (C57BL/6); details: for Glucose level (mg/dl), Mean: GTT, high-fat diet mice
Experimental: as §2, §3, §4, §5, §6
At 8 weeks of high-fat diet feeding, a glucose tolerance test (GTT) was performed. For 8 hours for the test, mice were fasted. Then, blood was sampled from the tail vein, and initial blood glucose levels were measured with a blood glucose meter (AUTO-CHEK, Diatech Korea). Then, glucose was administered intraperitoneally to the mice at a concentration of 1 g/kg, and after 30 min, 60 min, 90 min and 120 min, blood was sampled from the mice, followed by measurement of blood glucose levels (each group consisting of five animals).
as §7

[5] = Blood biochemistry (triglyceride, AST, ALT) in high-fat diet mice; format: in vivo, mice (C57BL/6)
Experimental: as §2, §4
In blood biochemistry, insulin (AKRIN-011T, Shibayagi, Japan), glucose (AM202, Asan Pharmaceutical Co., Ltd., Korea), triglyceride (AM157, Asan Pharmaceutical Co., Ltd.), total cholesterol (AM202, Asan Pharmaceutical Co., Ltd.), AST and ALT (Asan Pharmaceutical Co., Ltd.) were analyzed using enzymatic assay kits.
as §1, §7

[6] = Thermogravimetric analysis (TGA); format: physicochemical; details: first-order differentiation of TGA; N2, 20° C./min
Experimental: For reference, an analysis instrument and analysis conditions are as follows. (1) Analysis instrument: TGA 7 (Perkin-Elmer) (2) Atmosphere: N2 gas (3) Heating rate: 20° C./min (4) Range: 50 to 600° C.

Question: With `NCCS(=O)(=O)O` [DT15, modified taurine] as the compound, how does the “Accumulation of adipose in brown adipose tissue” value [1] read?
Answer: Its value is “decreased”.

Question: And the “Development of fatty liver” value [1]?
Answer: The value was “decreased”.

Question: And the Nephrotoxicity ([1]; kidney tissue)?
Answer: Its Nephrotoxicity is “did not appear”.

Question: What about the Average particle size [2] of the same compound?
Answer: Its Average particle size is 190.84 μm.

Question: What about the Median particle size [2] of the same compound?
Answer: Its Median particle size is 122.47 μm.

Question: What about the “Body weight gain, Mean” value ([3]; 1 week) of the same compound?
Answer: Its value is 2.65 g.

Question: And the “Body weight, Mean” value ([3]; 1 week)?
Answer: The value was 20.30 g.

Question: What about the “Body weight gain, Mean” value ([3]; 2 weeks) of the same compound?
Answer: Its value is 4.40 g.

Question: And the “Body weight, Mean” value ([3]; 2 weeks)?
Answer: The value was 22.05 g.

Question: And the “Body weight gain, Mean” value ([3]; 3 weeks)?
Answer: The value was 6.28 g.

Question: And the “Body weight, Mean” value ([3]; 3 weeks)?
Answer: Its value is 23.93 g.

Question: What about the “Body weight gain, Mean” value ([3]; 4 weeks) of the same compound?
Answer: The value was 7.53 g.

Question: What about the “Body weight, Mean” value ([3]; 4 weeks) of the same compound?
Answer: Its value is 25.18 g.

Question: What about the “Body weight gain, Mean” value ([3]; 5 weeks) of the same compound?
Answer: Its value is 8.38 g.

Question: What about the “Body weight, Mean” value ([3]; 5 weeks) of the same compound?
Answer: Its value is 26.03 g.

Question: What about the “Body weight gain, Mean” value ([3]; 6 weeks) of the same compound?
Answer: The value was 10.25 g.

Question: And the “Body weight, Mean” value ([3]; 6 weeks)?
Answer: The value was 27.90 g.

Question: And the “Body weight gain, Mean” value ([3]; 7 weeks)?
Answer: Its value is 11.10 g.

Question: And the “Body weight, Mean” value ([3]; 7 weeks)?
Answer: Its value is 28.75 g.

Question: And the “Body weight, Mean” value ([3]; 8 weeks)?
Answer: Its value is 29.23 g.

Question: What about the “Body weight, Mean” value ([3]; before administration) of the same compound?
Answer: The value was 17.65 g.

Question: What about the “Glucose level (mg/dl), Mean” value ([4]; 0 min) of the same compound?
Answer: The value was 121.25 mg/dL.

Question: What about the “Glucose level (mg/dl), Mean” value ([4]; 30 min) of the same compound?
Answer: Its value is 335.25 mg/dL.

Question: What about the “Glucose level (mg/dl), Mean” value ([4]; 60 min) of the same compound?
Answer: Its value is 295.25 mg/dL.

Question: What about the “Glucose level (mg/dl), Mean” value ([4]; 90 min) of the same compound?
Answer: The value was 193.75 mg/dL.

Question: What about the “Glucose level (mg/dl), Mean” value ([4]; 120 min) of the same compound?
Answer: Its value is 126.25 mg/dL.

Question: What about the Fasting glucose level ([4]; at 8 weeks of high-fat diet feeding, 8 hours fasted) of the same compound?
Answer: Its Fasting glucose level is “lower than that of the mice administered with high-fat diet (HFD), and were similar to the blood glucose levels of normal mice”.

Question: And the “Glucose control ability in GTT” value ([4]; at 8 weeks of high-fat diet feeding, glucose 1 g/kg intraperitoneally, 30-120 min)?
Answer: Its value is “significantly higher than that of the group administered with HFD alone”.

Question: And the ALT level [5]?
Answer: The ALT level was “lower than those of DT19”.

Question: What about the AST level [5] of the same compound?
Answer: Its AST level is “lower than those of DT19”.

Question: And the Triglyceride level [5]?
Answer: Its Triglyceride level is “significantly lower than that of DT19 (taurine)”.

Question: What about the “ALT level (IU/L), Mean” value ([5]; blood) of the same compound?
Answer: The value was 14.02 IU/L.

Question: What about the “AST level (IU/L), Mean” value ([5]; blood) of the same compound?
Answer: The value was 98.96 IU/L.

Question: And the “Triglyceride level (mg/dl), Mean” value ([5]; blood)?
Answer: Its value is 53.62 mg/dL.

Question: And the Final decomposition temperature [6]?
Answer: The Final decomposition temperature was 396 °C.

Question: What about the First decomposition temperature [6] of the same compound?
Answer: Its First decomposition temperature is 359 °C.
